From the SangsterLogP compilation come the findings set out here.

On to `COc1ccc(C#N)cc1Br`, for which the log partition coefficient (logP) (in general, a log measure of how a compound divides between an organic and an aqueous phase) came to 2.35.

In turn, `N#Cc1ccc(O)c(Br)c1` showed a logP of 1.75.

`CCOc1ccc(C#N)cc1Br` gave a logP of 2.99.

For `CCOc1ccc(C#N)cc1`, the logP stood at 2.03.

With `CC(C)C(C#N)c1ccccc1` (configuration not stated), the logP was 2.89.

`N#Cc1ccc(Cl)c(Cl)c1` showed a logP of 2.98.

In the case of `COc1ccc(C#N)cc1OC`, the lipophilicity (logP) was 1.42.

`CCOc1ccc(C#N)cc1[N+](=O)[O-]` gave a logP of 1.77.

With `CCOc1cc(C#N)ccc1O`, the logP was 1.36.

Consider `N#Cc1ccc(Br)cc1`, for which the logP was found to be 2.42.

On to `COc1ccc(C(C#N)C(C)C)cc1` (configuration not stated), for which the logP came to 2.68.

`COc1ccc(C#N)cc1[N+](=O)[O-]` yielded a logP of 1.23.

The molecule `COc1ccc(C#N)cc1` gave a logP of 1.49.

`CC(C)C(C#N)c1ccc([N+](=O)[O-])cc1` (configuration not stated) registered a logP of 2.63.

The molecule `CCOc1ccc(C#N)cc1OC` came in with a logP of 2.06.

With `COc1cc(C#N)ccc1O`, the logP was 0.82.

On to `N#Cc1cccc([N+](=O)[O-])c1`, for which the logP is 1.3.
